Source: patent US4107424A, “1-N-[(S)-α-hydroxy-ω-aminoacyl] derivatives of 3',4'-dideoxykanamycin B and 3'-deoxykanamycin B antibiotics” (Zaidan Hojin Biseibutsu Kagaku Kenkyu Kai, priority 1972, dated 1978)
In brackets after ≈: the same amount, converted by molar mass. Read-outs that look alike come from different tables or passages of the source.

Tests used:
[1] = test system: mice; test: Acute intravenous toxicity (LD50) in mice; conditions: in words
[2] = test system: Escherichia coli K-12 JR 66/W 677; test: Minimal inhibitory concentration, agar dilution streak method; format: cell-based; conditions: Escherichia coli, 18 h
Method: (§1) *Agar Agar dilution streak method (nutrient agar, 37° C, 18 hours)
(§2) *Agar dilution streak method (nutrient agar, 37° C, 18 hours).

[3] = test system: Staphylococcus aureus FDA 209P; test: as above; format: cell-based; conditions: FDA209P, nutrient agar, 37° C, 18 hours
Method: as §1, §2

[4] = test system: Pseudomonas aeruginosa GN 315; test: as above; format: cell-based; conditions: GN315, nutrient agar, 37° C, 18 hours
Method: as §1, §2

[5] = test system: Escherichia coli K-12 ML 1410; test: as above; format: cell-based; conditions: K12ML1410, nutrient agar, 37° C, 18 hours
Method: as §1, §2

[6] = test system: Pseudomonas aeruginosa No.12; test: as above; format: cell-based; conditions: nutrient agar, 37° C, 18 hours
Method: as §1, §2

[7] = test system: Pseudomonas aeruginosa A 3; test: as above; format: cell-based; conditions: A3, nutrient agar, 37° C, 18 hours
Method: as §1, §2

[8] = test system: Escherichia coli K-12 LA 290 R 55; test: as above; format: cell-based; conditions: 18 h
Method: as §1, §2

[9] = test system: Escherichia coli K-12 W 677; test: as above; format: cell-based; conditions: K12W677, nutrient agar, 37° C, 18 hours
Method: as §1, §2

[10] = test system: Escherichia coli K-12 ML 1629; test: as above; format: cell-based; conditions: K12ML1629, nutrient agar, 37° C, 18 hours
Method: as §1, §2

[11] = test system: gram-positive and gram-negative bacteria; test: Antibacterial activity (in words); format: cell-based; conditions: for antibacterial activity compared with parent or reference substance: sensitive (and resistant) bacteria; for antibacterial activity: various gram-positive and gram-negative bacteria, including resistant strains
Method: (§3) [α]D^22 + 38°, (c 0.85, water).

[12] = in vivo; conditions: mouse, iv
[13] = test system: Pseudomonas aeruginosa TI-13; test: Minimal inhibitory concentration, agar dilution streak method; format: cell-based; conditions: TI13, nutrient agar, 37° C, 18 hours
Method: as §1, §2

[14] = test system: Escherichia coli K-12 ML 1630; test: as above; format: cell-based; conditions: K12ML1630, nutrient agar, 37° C, 18 hours
Method: as §1, §2

[15] = test system: Escherichia coli K-12 LA 290 R 56; test: as above; format: cell-based; conditions: 18 h
Method: as §1, §2

[16] = test system: Escherichia coli K-12 LA 290 R 64; test: as above; format: cell-based; conditions: nutrient agar, 37° C, 18 hours
Method: as §1, §2

[17] = test system: Escherichia coli K-12; test: as above; format: cell-based; conditions: K12, nutrient agar, 37° C, 18 hours
Method: as §1, §2

[18] = test system: Escherichia coli K-12 ML 1410 R 81; test: as above; format: cell-based; conditions: 18 h
Method: as §1, §2

[19] = test system: Pseudomonas aeruginosa 99; test: as above; format: cell-based; conditions: nutrient agar, 37° C, 18 hours
Method: as §3, §1, §2

[20] = test system: Mycobacterium smegmatis ATCC 607; test: as above; format: cell-based; conditions: Mycolicibacterium smegmatis, ATCC607; nutrient agar, 37° C, 48 hours; read-out: Minimal inhibitory concentration
[21] = test system: Klebsiella pneumoniae type 22 #3038; test: as above; format: cell-based; conditions: Klebsiella pneumoniae; nutrient agar, 37° C, 18 hours
Method: as §1, §2

[22] = test system: Sarcina lutea PCI 1001; test: as above; format: cell-based; conditions: Micrococcus luteus, PCI1001; nutrient agar, 37° C, 18 hours; read-out: Minimal inhibitory concentration
Method: as §3, §1, §2

[23] = test system: Proteus rettgeri GN 311; test: as above; format: cell-based; conditions: Providencia rettgeri, GN311; nutrient agar, 37° C, 18 hours
Method: as §3, §1, §2

[24] = test system: Escherichia coli J 5 R 11-2; test: as above; format: cell-based; conditions: J5R112, 18 h, read-out: Minimal inhibitory concentration
Method: as §3, §1, §2

[25] = test system: Escherichia coli K-12 R-5; test: as above; format: cell-based; conditions: K12R5, nutrient agar, 37° C, 18 hours
Method: as §3, §1, §2

[26] = test system: Escherichia coli NIHJ; test: as above; format: cell-based; conditions: nutrient agar, 37° C, 18 hours
Method: as §3, §1, §2

[27] = test system: Klebsiella pneumoniae PCI 602; test: as above; format: cell-based; conditions: PCI602, nutrient agar, 37° C, 18 hours
Method: as §3, §1, §2

[28] = test system: Proteus rettgeri GN 466; test: as above; format: cell-based; conditions: Providencia rettgeri, GN466; nutrient agar, 37° C, 18 hours
Method: as §3, §1, §2

[29] = test system: Bacillus subtilis NRRL B-558; test: as above; format: cell-based; conditions: NRRLB558, nutrient agar, 37° C, 18 hours
Method: as §3, §1, §2

[30] = test system: Salmonella typhosa T-63; test: as above; format: cell-based; conditions: Salmonella enterica, nutrient agar, 37° C, 18 hours
Method: as §3, §1, §2

[31] = test system: Escherichia coli K-12 C 600 R 135; test: as above; format: cell-based; conditions: 18 h, read-out: Minimal inhibitory concentration
Method: as §3, §1, §2

[32] = read-out: minimum inhibitory concentrations
[33] = drug-resistant strain, read-out: minimum inhibitory concentrations
[34] = read-out: Minimal inhibitory concentration

With NCC[C@H](O)C(=O)N[C@@H]1C[C@H](N)[C@@H](O[C@H]2O[C@H](CN)[C@@H](O)C[C@H]2N)[C@H](O)[C@H]1O [AHB-deoxyneamine, 1-N-[(S)-4-amino-2-hydroxybutyryl]-3'-deoxyneamine] the toxicity [1] was “toxicity as low as that of their parent substances”, the MIC [2, 32] was 6.25 µg/mL (≈ 15.3 µM) and the MIC [3, 32] was 3.12 µg/mL (≈ 7.66 µM). The MIC [4, 33] was greater than 100 µg/mL, the MIC [5, 32] was 6.25 µg/mL (≈ 15.3 µM) and the MIC [6, 32] was 6.25 µg/mL (≈ 15.3 µM). For the same compound, the MIC [7, 32] was 6.25 µg/mL (≈ 15.3 µM), the MIC [8, 32] was 6.25 µg/mL (≈ 15.3 µM) and the MIC [9, 32] was 6.25 µg/mL (≈ 15.3 µM). The MIC [10, 33] was 6.25 µg/mL (≈ 15.3 µM), the “antibacterial activity compared with parent or reference substance” value [11] was “antibacterial activity as high as that of their parent substances” and the antibacterial activity [11] was “high antibacterial activity against the kanamycin-resistant strains”. The LD50 [12] was greater than 100 mg/kg.

With NCC[C@H](O)C(=O)N[C@@H]1C[C@H](N)[C@@H](O[C@H]2O[C@H](CN)[C@@H](O)C[C@H]2N)[C@H](O[C@@H]2O[C@H](CO)[C@@H](O)[C@H]2O)[C@H]1O [AHB-deoxyribostamycin, 1-N-[(S)-4-amino-2-hydroxybutyryl]-3'-deoxyribostamycin] the toxicity [1] was “toxicity as low as that of their parent substances”, the MIC [2, 32] was 3.12 µg/mL (≈ 5.78 µM) and the MIC [3, 32] was 1.56 µg/mL (≈ 2.89 µM). The MIC [4, 33] was greater than 100 µg/mL, the MIC [5, 32] was 0.78 µg/mL (≈ 1.45 µM) and the MIC [6, 32] was 3.12 µg/mL (≈ 5.78 µM). It also gave an MIC [7, 32] of 1.56 µg/mL (≈ 2.89 µM), an MIC [8, 32] of 1.56 µg/mL (≈ 2.89 µM) and an MIC [9, 32] of 0.78 µg/mL (≈ 1.45 µM). The MIC [10, 33] was 1.56 µg/mL (≈ 2.89 µM), the “antibacterial activity compared with parent or reference substance” value [11] was “antibacterial activity as high as that of their parent substances” and the antibacterial activity [11] was “high antibacterial activity against the kanamycin-resistant strains”. It also gave an LD50 [12] greater than 100 mg/kg.

With NCC[C@H](O)C(=O)N[C@@H]1C[C@H](N)[C@@H](O[C@H]2O[C@H](CN)CC[C@H]2N)[C@H](O)[C@H]1O[C@H]1O[C@H](CO)[C@@H](O)[C@H](N)[C@H]1O [AHB-dideoxykanamycin B, 1-N-[(S)-4-amino-2-hydroxy-n-butyryl]-3',4'-dideoxykanamycin B] the toxicity [1] was “toxicity as low as that of kanamycin”, the MIC [2, 32] was 1.56 µg/mL (≈ 2.82 µM) and the MIC [3, 32] was 0.78 µg/mL (≈ 1.41 µM). For the same compound, the MIC [13, 32] was 3.12 µg/mL (≈ 5.65 µM), the MIC [14, 32] was 0.78 µg/mL (≈ 1.41 µM) and the MIC [15, 32] was 0.39 µg/mL (≈ 0.706 µM). The MIC [16, 32] was 0.78 µg/mL (≈ 1.41 µM), the MIC [5, 32] was 0.78 µg/mL (≈ 1.41 µM) and the MIC [6, 32] was 1.56 µg/mL (≈ 2.82 µM). The MIC [17, 32] was 0.78 µg/mL (≈ 1.41 µM), the MIC [18, 32] was 1.56 µg/mL (≈ 2.82 µM) and the MIC [7, 32] was 3.12 µg/mL (≈ 5.65 µM). The MIC [8, 32] was 0.78 µg/mL (≈ 1.41 µM), the MIC [9, 32] was 0.39 µg/mL (≈ 0.706 µM) and the MIC [10, 33] was 0.78 µg/mL (≈ 1.41 µM). The MIC [19, 32] was 12.5 µg/mL (≈ 22.6 µM), the “antibacterial activity compared with parent or reference substance” value [11] was “stronger antibacterial activity than those of kanamycin A and 3',4'-dideoxykanamycin B” and the antibacterial activity [11] was “high antibacterial activity against drug-resistant strains such as Staphylococcus aureus, Escherichia coli and Pseudomonas aeruginosa strains which are resistant to kanamycin and DKB”. For the same compound, the LD50 [12] was greater than 150 mg/kg.

With CNC[C@H]1O[C@H](O[C@H]2[C@H](O)[C@@H](O[C@H]3O[C@H](CO)[C@@H](O)[C@H](N)[C@H]3O)[C@H](NC(=O)[C@@H](O)CCN)C[C@@H]2N)[C@H](N)C[C@@H]1O [AHB-methyldeoxykanamycin B, 1-N-[(S)-4-amino-2-hydroxybutyryl]-3'-deoxy-6'-N-methylkanamycin B] the toxicity [1] was “toxicity as low as that of their parent substances”, the MIC [2, 32] was 3.12 µg/mL (≈ 5.35 µM) and the MIC [3, 32] was 0.78 µg/mL (≈ 1.34 µM). The MIC [4, 33] was 6.25 µg/mL (≈ 10.7 µM), the MIC [5, 32] was 0.78 µg/mL (≈ 1.34 µM) and the MIC [6, 32] was 0.78 µg/mL (≈ 1.34 µM). It also gave an MIC [7, 32] of 0.78 µg/mL (≈ 1.34 µM), an MIC [8, 32] of 0.78 µg/mL (≈ 1.34 µM) and an MIC [9, 32] of 3.12 µg/mL (≈ 5.35 µM). For the same compound, the MIC [10, 33] was 0.78 µg/mL (≈ 1.34 µM), the “antibacterial activity compared with parent or reference substance” value [11] was “antibacterial activity as high as that of their parent substances” and the antibacterial activity [11] was “high antibacterial activity against the kanamycin-resistant strains”. The LD50 [12] was greater than 100 mg/kg.

Work on NC[C@H]1O[C@H](O[C@H]2[C@H](O)[C@@H](O)[C@H](N)C[C@@H]2N)[C@H](N)[C@@H](O)[C@@H]1O [Neamine, neamine] yielded an MIC [20] of 12.5 µg/mL (≈ 38.8 µM), an MIC [2, 34] greater than 100 µg/mL and an MIC [3, 34] of 6.25 µg/mL (≈ 19.4 µM). It also gave an MIC [13, 34] greater than 100 µg/mL, an MIC [14, 34] greater than 100 µg/mL and an MIC [4, 34] greater than 100 µg/mL. It also gave an MIC [15, 34] of 12.5 µg/mL (≈ 38.8 µM), an MIC [16, 34] of 6.25 µg/mL (≈ 19.4 µM) and an MIC [5, 34] of 12.5 µg/mL (≈ 38.8 µM). The MIC [6, 34] was greater than 100 µg/mL, the MIC [17, 34] was 6.25 µg/mL (≈ 19.4 µM) and the MIC [21] was greater than 100 µg/mL. The MIC [18, 34] was greater than 100 µg/mL, the MIC [7, 34] was greater than 100 µg/mL and the MIC [8, 34] was 5.25 µg/mL (≈ 16.3 µM). It also gave an MIC [9, 34] of 6.25 µg/mL (≈ 19.4 µM), an MIC [10, 34] greater than 100 µg/mL and an MIC [22] greater than 100 µg/mL. The MIC [19, 34] was greater than 100 µg/mL, the MIC [23] was 100 µg/mL (≈ 310 µM) and the MIC [24] was greater than 100 µg/mL. It also gave an MIC [25] greater than 100 µg/mL, an MIC [26] of 12.5 µg/mL (≈ 38.8 µM) and an MIC [27] of 12.5 µg/mL (≈ 38.8 µM). For the same compound, the MIC [28] was 25 µg/mL (≈ 77.6 µM), the MIC [29] was 0.78 µg/mL (≈ 2.42 µM) and the MIC [30] was 3.12 µg/mL (≈ 9.68 µM). The MIC [31] was 12.5 µg/mL (≈ 38.8 µM).
